For 42 molecules, IC50 results are on record in patent US20250313535A1, “ALPHA 4 BETA 7 INTEGRIN MODULATORS AND USES THEREOF” (DICE MOLECULES SV, INC., priority 2022, published 2025).

What is called IC50 is the concentration needed to halve the response being measured.

For one test, the target named is α4β7 integrin (Homo sapiens (Human), UniProt P13612+P26010). The experiment in a line: Integrin Adhesion Assay: Protocol 1 (MAdCAM-coated plate, RPMI-8866 cells, CellTiter GLO readout). It is filed as cell-based. To be noted: integrin adhesion assay; determined by at least one of the assays described (protocol not specified). A digest of the protocol: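 RPMI-8866 cells (2×10^6 per mL) added with compounds (1% DMSO) to MAdCAM-coated wells blocked in HEPES/NaCl buffer with 1 mM MnCl2, 0.1 mM CaCl2, 1% BSA; 1 h at 37° C, 5% CO2. After four washes, bound cells read by CellTiter GLO luminescence; % inhibition vs DMSO and control wells, 4-parameter fit.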
Sequence of α4β7 integrin (P13612 34-1032): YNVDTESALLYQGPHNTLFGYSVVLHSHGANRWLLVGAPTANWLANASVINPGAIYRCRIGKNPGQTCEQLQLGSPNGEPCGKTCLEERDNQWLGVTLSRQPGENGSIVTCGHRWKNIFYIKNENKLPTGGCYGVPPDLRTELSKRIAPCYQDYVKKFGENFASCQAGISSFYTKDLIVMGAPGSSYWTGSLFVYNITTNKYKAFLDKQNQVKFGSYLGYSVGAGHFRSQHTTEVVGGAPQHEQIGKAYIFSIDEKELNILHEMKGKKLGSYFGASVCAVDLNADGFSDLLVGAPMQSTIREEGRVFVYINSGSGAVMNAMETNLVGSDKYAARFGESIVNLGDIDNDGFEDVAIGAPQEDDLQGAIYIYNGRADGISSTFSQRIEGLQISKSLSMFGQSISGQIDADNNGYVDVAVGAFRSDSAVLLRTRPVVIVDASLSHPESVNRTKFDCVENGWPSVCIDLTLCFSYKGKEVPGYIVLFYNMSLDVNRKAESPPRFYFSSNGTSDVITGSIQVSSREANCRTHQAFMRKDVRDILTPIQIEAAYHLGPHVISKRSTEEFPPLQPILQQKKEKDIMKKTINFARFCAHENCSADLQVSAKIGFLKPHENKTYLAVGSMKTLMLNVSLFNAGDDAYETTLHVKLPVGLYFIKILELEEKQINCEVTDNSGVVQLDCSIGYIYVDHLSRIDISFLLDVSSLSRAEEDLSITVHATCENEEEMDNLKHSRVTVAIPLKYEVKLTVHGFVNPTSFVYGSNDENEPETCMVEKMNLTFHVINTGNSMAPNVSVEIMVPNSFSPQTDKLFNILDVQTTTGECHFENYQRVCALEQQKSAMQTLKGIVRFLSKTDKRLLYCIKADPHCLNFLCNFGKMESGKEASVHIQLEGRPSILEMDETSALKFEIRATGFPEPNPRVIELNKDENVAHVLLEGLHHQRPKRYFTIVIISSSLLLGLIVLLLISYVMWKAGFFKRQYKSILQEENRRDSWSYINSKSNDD
Sequence of α4β7 integrin (P26010 20-798): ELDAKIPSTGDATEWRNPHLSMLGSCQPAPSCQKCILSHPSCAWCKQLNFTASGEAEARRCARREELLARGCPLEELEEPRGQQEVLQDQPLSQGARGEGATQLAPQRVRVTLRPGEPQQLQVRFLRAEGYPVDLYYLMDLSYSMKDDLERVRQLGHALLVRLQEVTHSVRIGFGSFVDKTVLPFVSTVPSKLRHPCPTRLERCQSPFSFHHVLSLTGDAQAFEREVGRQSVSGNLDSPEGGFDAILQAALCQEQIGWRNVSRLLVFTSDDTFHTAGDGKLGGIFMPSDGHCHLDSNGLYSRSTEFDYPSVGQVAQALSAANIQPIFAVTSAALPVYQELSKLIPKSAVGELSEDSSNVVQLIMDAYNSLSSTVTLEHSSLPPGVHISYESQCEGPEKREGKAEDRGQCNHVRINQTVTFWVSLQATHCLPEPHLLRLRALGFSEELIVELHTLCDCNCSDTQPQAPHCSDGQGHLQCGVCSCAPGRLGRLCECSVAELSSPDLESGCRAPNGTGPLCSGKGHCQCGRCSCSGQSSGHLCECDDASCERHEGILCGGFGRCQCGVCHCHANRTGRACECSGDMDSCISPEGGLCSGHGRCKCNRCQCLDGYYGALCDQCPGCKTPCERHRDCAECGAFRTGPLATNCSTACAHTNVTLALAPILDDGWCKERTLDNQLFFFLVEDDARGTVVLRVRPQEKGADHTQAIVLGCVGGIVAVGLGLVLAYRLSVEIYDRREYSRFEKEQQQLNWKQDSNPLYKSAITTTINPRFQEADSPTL
A general note: In ATP-based viability assays light output follows the ATP content of the culture.

For the next test, the target named is α4β1 integrin (Homo sapiens (Human), UniProt P05556+P13612). The experiment in a line: Integrin Adhesion Assay: Protocol 2 (VCAM-coated plate, Jurkat cells, CellTiter GLO readout). To be noted: determined by at least one of the assays described (protocol not specified). It is filed as cell-based. The procedure, abridged: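 Jurkat cells (2×10^6 per mL) adhered to VCAM-coated (0.1 ug/well), BSA-blocked wells with compound (1% DMSO) for 1 h at 37° C in 10 mM HEPES, 150 mM NaCl, 1 mM MnCl2, 0.1 mM CaCl2. After four washes, bound cells were quantified by CellTiter-Glo luminescence. Percent inhibition versus DMSO and control-compound wells was fitted to a 4-parameter curve.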
Sequence of α4β1 integrin (P13612 34-1032): as the sequence (P13612 34-1032) above
Sequence of α4β1 integrin (P05556 21-798): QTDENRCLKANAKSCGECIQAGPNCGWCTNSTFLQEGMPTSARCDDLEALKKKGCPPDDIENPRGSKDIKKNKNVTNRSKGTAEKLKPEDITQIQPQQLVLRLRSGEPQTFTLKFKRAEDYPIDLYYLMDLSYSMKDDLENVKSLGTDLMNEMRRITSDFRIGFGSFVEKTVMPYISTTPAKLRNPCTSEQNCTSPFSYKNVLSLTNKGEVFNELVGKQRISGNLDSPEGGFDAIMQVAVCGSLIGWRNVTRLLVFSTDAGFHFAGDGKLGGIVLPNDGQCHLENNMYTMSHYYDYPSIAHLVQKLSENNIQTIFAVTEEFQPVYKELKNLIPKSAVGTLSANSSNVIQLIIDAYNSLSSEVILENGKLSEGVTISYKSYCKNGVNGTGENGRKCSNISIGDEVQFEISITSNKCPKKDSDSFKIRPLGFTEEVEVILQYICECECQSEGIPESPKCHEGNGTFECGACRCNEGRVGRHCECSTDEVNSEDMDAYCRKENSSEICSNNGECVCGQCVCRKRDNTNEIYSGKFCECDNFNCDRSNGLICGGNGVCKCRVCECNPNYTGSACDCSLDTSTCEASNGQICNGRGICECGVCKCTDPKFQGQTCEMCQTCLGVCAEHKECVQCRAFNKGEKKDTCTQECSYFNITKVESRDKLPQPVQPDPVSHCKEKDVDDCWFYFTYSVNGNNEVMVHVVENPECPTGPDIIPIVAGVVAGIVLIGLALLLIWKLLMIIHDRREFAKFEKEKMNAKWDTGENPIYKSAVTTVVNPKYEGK

Some results are limits rather than exact numbers.

Turning to `Cn1ccc(=O)n(-c2cccc3c(C[C@H](NC(=O)[C@H]4C[C@H]5CC[C@@H](C4)N5CC(F)(F)F)C(=O)O)cccc23)c1=O` [Compound 154], the IC50 at α4β7 integrin and on α4β1 integrin was > 1000 nM in each case.
For the molecule `O=C(N[C@@H](Cc1cccc2c(-c3nccc4ccncc34)cccc12)C(=O)O)c1c(F)cc(N2CCOC[C@@H]2C(F)(F)F)cc1CN1CCOCC1` [Compound 129], the IC50 at α4β7 integrin is < 10 nM; at α4β1 integrin, 100 to 1000 nM.
For the molecule `Cn1ccc(=O)n(-c2cccc3c(C[C@H](NC(=O)c4c(F)cc(NS(C)(=O)=O)cc4F)C(=O)O)cccc23)c1=O` [Compound 111], the IC50 on α4β7 integrin is < 10 nM; on α4β1 integrin it was 100 to 1000 nM.
In the same order, the values of `CNC(=O)[C@@H]1CC[C@H](c2ccccc2)N1C(=O)c1ccc2cc(C(=O)N[C@@H](Cc3cccc4c(-n5c(=O)ccn(C)c5=O)cccc34)C(=O)O)ccc2c1` [Compound 128] are 100 to 1000 nM and > 1000 nM.
For `Cn1ccc(=O)n(-c2cccc3c(C[C@H](NC(=O)c4c(F)cc5ncccc5c4F)C(=O)O)cccc23)c1=O` [Compound 133] the same measures were < 10 nM and > 1000 nM.
`O=C(N[C@@H](Cc1cccc2c(-c3nccc4ccncc34)cccc12)C(=O)O)c1c(F)cc(CN2CCC2)cc1F` [Compound 37]: the concentration for half-maximal inhibition (IC50) at α4β7 integrin and on α4β1 integrin was > 1000 nM each time.
Regarding `Cn1ccc(=O)n(-c2cccc3c(C[C@H](NC(=O)c4c(F)cc(NCC(F)(F)F)cc4CN4CCOCC4)C(=O)O)cccc23)c1=O` [Compound 19], the half-inhibitory concentration (IC50) against α4β7 integrin was < 10 nM; against α4β1 integrin it was 100 to 1000 nM.
On to `Cn1ccc(=O)n(-c2cccc3c(C[C@H](NC(=O)c4c(F)ccc(C(F)(F)F)c4F)C(=O)O)cccc23)c1=O` [Compound 29], for which the IC50 was 10 to 100 nM against α4β7 integrin and > 1000 nM on α4β1 integrin.
For `Cn1ccc(=O)n(-c2cccc3c(C[C@H](NC(=O)c4c(F)cc(NS(=O)(=O)C(F)(F)F)cc4F)C(=O)O)cccc23)c1=O` [Compound 8] the same measures were < 10 nM and 100 to 1000 nM.
For `Cn1ccc(=O)n(-c2cccc3c(C[C@H](NC(=O)C4CCN(CC(F)(F)F)CC4)C(=O)O)cccc23)c1=O` [Compound 35] the same measures were > 1000 nM and > 1000 nM.
`Cn1ccc(C(F)(F)F)c(-c2nccc3c(C[C@H](NC(=O)c4c(F)cc(N5CCOC[C@@H]5C(F)(F)F)cc4CN4CCC(F)(F)CC4)C(=O)O)cccc23)c1=O` [Compound 226]: the IC50 at α4β7 integrin is < 10 nM; against α4β1 integrin it was > 1000 nM.
`Cn1ccc(=O)n(-c2cccc3c(C[C@H](NC(=O)C45CCC(C)(CC4)CC5)C(=O)O)cccc23)c1=O` [Compound 52]: the IC50 against α4β7 integrin was 100 to 1000 nM; at α4β1 integrin, > 1000 nM.
Regarding `O=C(N[C@@H](Cc1cccc2c(-c3cccc4ccncc34)cccc12)C(=O)O)c1c(F)cc(N2CCOC[C@@H]2C(F)(F)F)cc1CN1CCCC1` [Compound 148], the IC50 against α4β7 integrin is < 10 nM; against α4β1 integrin, > 1000 nM.
For `CN([C@H](CCC(=O)O)C(=O)N[C@@H](Cc1cccc2c(-n3c(=O)ccn(C)c3=O)cccc12)C(=O)O)S(=O)(=O)c1ccccc1` [Compound 72] the same measures were 100 to 1000 nM and > 1000 nM.
For `CC(C)N1CCC(C)(C(=O)N[C@@H](Cc2cccc3c(-n4c(=O)ccn(C)c4=O)cccc23)C(=O)O)CC1` [Compound 57] the same measures were 10 to 100 nM and > 1000 nM.
For `COc1ccc(F)c(C(=O)N[C@@H](Cc2cccc3c(-n4c(=O)ccn(C)c4=O)cccc23)C(=O)O)c1F` [Compound 138] the same measures were 10 to 100 nM and > 1000 nM.
For the molecule `CCC1(C(=O)N[C@@H](Cc2cccc3c(-n4c(=O)ccn(C)c4=O)cccc23)C(=O)O)CCC(F)(F)CC1` [Compound 66], the results for the IC50 on α4β7 integrin and against α4β1 integrin were 100 to 1000 nM and > 1000 nM, respectively.
In the same order, the values of `O=C(N[C@@H](Cc1cccc2c(-c3nccc4ccncc34)cccc12)C(=O)O)c1c(F)cc(N2CCOC[C@@H]2CC(F)F)cc1F` [Compound 39] are 10 to 100 nM and > 1000 nM.
For `Cn1ccc(=O)n(-c2cccc3c(C[C@H](NC(=O)c4c(F)cc(N5CCOC[C@H]5C(F)(F)F)cc4F)C(=O)O)cccc23)c1=O` [Compound 170] the same measures were 10 to 100 nM and > 1000 nM.
For `O=C(N[C@@H](Cc1cccc2c(-c3nccc4ccncc34)cccc12)C(=O)O)c1c(F)cc(CN2CCOCC2)cc1F` [Compound 38] the same measures were 100 to 1000 nM and > 1000 nM.
For the molecule `O=C(N[C@@H](Cc1cccc2c(-c3cccc4ccncc34)cccc12)C(=O)O)c1c(F)cc(N2CCOC[C@@H]2C(F)(F)F)cc1CN1CCOCC1` [Compound 149], the IC50 is 10 to 100 nM on α4β7 integrin and > 1000 nM against α4β1 integrin.
In the same order, the values of `Cn1ccc(=O)n(-c2cccc3c(C[C@H](NC(=O)c4c(F)cc(C(F)(F)F)cc4F)C(=O)O)cccc23)c1=O` [Compound 26] are 10 to 100 nM and > 1000 nM.
In the same order, the values of `Cc1cc(N2CCOC[C@@H]2C(F)(F)F)cc(F)c1C(=O)N[C@@H](Cc1cccc2c(-c3c(C(F)(F)F)ccn(C)c3=O)nccc12)C(=O)O` [Compound 215] are < 10 nM and > 1000 nM.
On to `CN1CCN(Cc2cc(N3CCOC[C@@H]3C(F)(F)F)cc(F)c2C(=O)N[C@@H](Cc2cccc3c(-n4c(=O)ccn(C)c4=O)cccc23)C(=O)O)CC1` [Compound 22], for which the IC50 against α4β7 integrin is < 10 nM; at α4β1 integrin, > 1000 nM.
For `O=C(N[C@@H](Cc1cccc2c(-c3cccc4ccncc34)cccc12)C(=O)O)c1c(F)cc(NCC(F)(F)F)cc1CN1CCCC1` [Compound 150] the same measures were < 10 nM and > 1000 nM.
For `Cn1ccc(=O)n(-c2cccc3c(C[C@H](NC(=O)c4c(F)cccc4F)C(=O)O)cccc23)c1=O` [Compound 1] the same measures were 10 to 100 nM and 100 to 1000 nM.
For `Cn1ccc(=O)n(-c2cccc3c(C[C@H](NCc4ccc(N5CCOCC5)cc4)C(=O)O)cccc23)c1=O` [Compound 70] the same measures were > 1000 nM and > 1000 nM.
Consider `Cn1ccc(C(F)(F)F)c(-c2cccc3c(C[C@H](NC(=O)c4c(F)cc(N5CCOC[C@@H]5C(F)(F)F)cc4CN4CCOCC4)C(=O)O)cccc23)c1=O` [Compound 143], for which the values for the IC50 on α4β7 integrin and against α4β1 integrin were < 10 nM and 100 to 1000 nM, respectively.
For `Cn1ccc(=O)n(-c2cccc3c(C[C@H](NC(=O)c4c(F)cc5c(ccn5C)c4F)C(=O)O)cccc23)c1=O` [Compound 27] the same measures were 10 to 100 nM and > 1000 nM.
For the molecule `Cn1ccc(=O)n(-c2cccc3c(C[C@H](NC(=O)c4c(F)cc(CN5CCOCC5)cc4F)C(=O)O)cccc23)c1=O` [Compound 34], the IC50 is 100 to 1000 nM against α4β7 integrin and > 1000 nM on α4β1 integrin.
For `Cn1ccc(=O)n(-c2cccc3c(C[C@H](NC(=O)c4c(F)cc(N5CCOC[C@@H]5C(F)(F)F)cc4CN4CCCC4)C(=O)O)cccc23)c1=O` [Compound 48] the same measures were < 10 nM and 100 to 1000 nM.
With `O=C(N[C@@H](Cc1cccc2c(-c3cccc4ccncc34)nccc12)C(=O)O)c1c(F)cc(CN2CCOCC2)cc1F` [Compound 223], the IC50 against α4β7 integrin and on α4β1 integrin was > 1000 nM throughout.
For `Cn1ccc(C(F)(F)F)c(-c2nccc3c(C[C@H](NC(=O)c4c(F)cc(N5CCOC[C@H]5C5CC5)cc4F)C(=O)O)cccc23)c1=O` [Compound 257], the IC50 against α4β7 integrin was 10 to 100 nM; against α4β1 integrin, > 1000 nM.
In the same order, the values of `Cn1ccc(C(F)(F)F)c(-c2nccc3c(C[C@H](NC(=O)c4c(F)cc(N5CCOC[C@@H]5C5CC5)cc4F)C(=O)O)cccc23)c1=O` [Compound 251] are < 10 nM and > 1000 nM.
In the same order, the values of `Cn1ccc(=O)n(-c2cccc3c(C[C@H](NC(=O)c4c(F)ccc(NCC(F)(F)F)c4F)C(=O)O)cccc23)c1=O` [Compound 120] are 10 to 100 nM and > 1000 nM.
For `Cn1c(C(F)(F)F)ccc(-c2cccc3c(C[C@H](NC(=O)c4c(F)cc(N5CCOC[C@@H]5C(F)(F)F)cc4F)C(=O)O)cccc23)c1=O` [Compound 67] the same measures were < 10 nM and > 1000 nM.
In the case of `Cn1ccc(=O)n(-c2cccc3c(C[C@H](NC(=O)C45C[C@H]6C[C@@H](C4)C[C@@H](C5)C6)C(=O)O)cccc23)c1=O` [Compound 53], the values for the IC50 at α4β7 integrin and against α4β1 integrin were 100 to 1000 nM and > 1000 nM, respectively.
For `O=C(N[C@@H](Cc1cccc2c(-c3nccc4ccncc34)cccc12)C(=O)O)c1c(F)cc(N2CCOC[C@@H]2CC(F)F)cc1CN1CCOCC1` [Compound 46], the IC50 at α4β7 integrin is < 10 nM; against α4β1 integrin, > 1000 nM.
In the same order, the values of `O=C(N[C@@H](Cc1cccc2c(-c3cccc4ccncc34)nccc12)C(=O)O)c1c(F)cc(NCC(F)(F)F)cc1CN1CCCC1` [Compound 256] are 10 to 100 nM and > 1000 nM.
In the same order, the values of `O=C(N[C@@H](Cc1cccc2c(-n3c(=O)ccc4cnccc43)cccc12)C(=O)O)c1c(F)cccc1F` [Compound 2] are < 10 nM and > 1000 nM.
In the same order, the values of `Cn1ccc(=O)n(-c2cccc3c(C[C@H](NC(=O)C4(C)CCC(F)(F)CC4)C(=O)O)cccc23)c1=O` [Compound 63] are 10 to 100 nM and > 1000 nM.
As for `Cn1ccc(=O)n(-c2cccc3c(C[C@H](NC(=O)c4c(F)cc5cnn(CC(F)(F)F)c5c4F)C(=O)O)cccc23)c1=O` [Compound 16], the IC50 against α4β7 integrin was < 10 nM; at α4β1 integrin, 100 to 1000 nM.
